This is an account of results in PMC3235172, “Distinct Expression Profiles and Different Functions of Odorant Binding Proteins in Nilaparvata lugens Stål” (PLoS ONE, 2011).

Structures are written as SMILES. Read-outs that look alike come from different tables or passages of the source.

The target of one test is NlugOBP1 (Nilaparvata lugens, UniProt B6E9U1). The test can be described thus: Competitive fluorescence binding assay (1-NPN probe) with recombinant NlugOBP1. How it is done: (§1) The excitation wavelength was 337 nm and the emission spectrum was recorded between 370 and 460 nm by a fluorescence spectrometer (Hitachi F-7000 Fluorescence Spectrophotometer, Japan) with a 1 cm light path quartz cuvette and 10 nm slits for both excitation and emission.

For test [1], the target named is NlugOBP2 (Nilaparvata lugens, UniProt B6E9U2). Put plainly: Competitive fluorescence binding assay (1-NPN probe) with recombinant NlugOBP2. On the procedure:
as §1

Another test deals with NlugOBP3 (Nilaparvata lugens, UniProt B6E9U3). The test can be described thus: Competitive fluorescence binding assay (1-NPN probe) with recombinant NlugOBP3. On the procedure:
as §1

Test [2] deals with NlugOBP2. The test can be described thus: Competitive fluorescence binding assay (1-NPN probe) with recombinant NlugOBP2. Also noted: species or system Nilaparvata lugens. The note with it: protein and 1-NPN at 2 µM. How it is done: as §1
Setting [3] is: calculated from IC50, protein and 1-NPN at 2 µM, pH 7.4, read-out: OBP1 Ki.
[4] abbreviates: displacement of 1-NPN, protein and 1-NPN at 2 µM, 50 mM Tris-HCl pH 7.4, read-out: OBP1 IC50.
The mark [5] stands for this setting: calculated from IC50, protein and 1-NPN at 2 µM, pH 7.4, read-out: OBP2 Ki.
Where [6] appears, read: displacement of 1-NPN, protein and 1-NPN at 2 µM, 50 mM Tris-HCl pH 7.4, read-out: OBP2 IC50.
Setting [7] is: calculated from IC50, protein and 1-NPN at 2 µM, pH 7.4, read-out: OBP3 Ki.
[8] abbreviates: displacement of 1-NPN, protein and 1-NPN at 2 µM, 50 mM Tris-HCl pH 7.4, read-out: OBP3 IC50.

Chain of NlugOBP2 (Nilaparvata lugens, UniProt B6E9U2) (B6E9U2 entry or part of it): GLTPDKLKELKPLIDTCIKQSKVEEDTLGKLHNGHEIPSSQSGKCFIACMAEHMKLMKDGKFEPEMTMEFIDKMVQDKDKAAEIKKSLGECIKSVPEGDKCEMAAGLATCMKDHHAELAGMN
Chain of NlugOBP3 (B6E9U3 entry or part of it): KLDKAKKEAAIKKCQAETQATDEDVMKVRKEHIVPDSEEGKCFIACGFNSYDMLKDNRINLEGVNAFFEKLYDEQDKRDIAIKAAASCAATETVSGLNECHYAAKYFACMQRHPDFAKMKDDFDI
Chain of NlugOBP1 (B6E9U1 entry or part of it): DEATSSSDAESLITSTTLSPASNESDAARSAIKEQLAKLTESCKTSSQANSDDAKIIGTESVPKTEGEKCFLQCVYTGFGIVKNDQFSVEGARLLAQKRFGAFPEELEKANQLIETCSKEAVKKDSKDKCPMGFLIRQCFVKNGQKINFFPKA

As a reminder, the Ki is the equilibrium dissociation constant of an inhibitor or competing ligand from its target. A word on the IC50: it is the concentration that inhibits the measured activity by half. On to `CC/C=C\CCOC(C)=O` [Ligand 22, (Z)-3-Hexenyl acetate], for which the inhibition constant Ki was greater than 50 µM at NlugOBP1 (setting [3]), 32.5 µM at NlugOBP2 [1] (setting [5]) and 27.1 µM on NlugOBP3 (setting [7]). Besides, the IC50 is greater than 50 µM on NlugOBP1 (setting [4]), 37.8 µM at NlugOBP2 [1] (setting [6]) and 38 µM at NlugOBP3 (setting [8]).
`CC(C)(C)c1cccc(C(C)(C)C)c1O` [Ligand 41, 2,6-Di-tert-butylphenol]: the Ki on NlugOBP1 (setting [3]) was 19 µM; at NlugOBP2 [1] (setting [5]) it was greater than 50 µM; on NlugOBP3 (setting [7]) it was 9.5 µM. Also, the values for the IC50 on NlugOBP1 (setting [4]), at NlugOBP2 [1] (setting [6]) and at NlugOBP3 (setting [8]) were 22.3 µM, greater than 50 µM and 13.3 µM, respectively.
Take `OCCc1ccccc1` [Ligand 7, 2-phenylethanol]: the Ki was 34 µM at NlugOBP1 (setting [3]), greater than 50 µM at NlugOBP2 [1] (setting [5]) and 26.1 µM at NlugOBP3 (setting [7]). Further, the IC50 at NlugOBP1 (setting [4]) was 39.9 µM; at NlugOBP2 [1] (setting [6]), greater than 50 µM; at NlugOBP3 (setting [8]), 36.6 µM.
Regarding `C=CC(C)(O)CC/C=C(\C)CCC=C(C)C` (racemic) [Ligand 3, (+/-)Nerolidol], the inhibition constant (Ki) at NlugOBP1 (setting [3]) is 24.2 µM; on NlugOBP2 [1] (setting [5]) it was 29.1 µM; on NlugOBP3 (setting [7]), 17.7 µM. In addition, the figures for the IC50 on NlugOBP1 (setting [4]), at NlugOBP2 [1] (setting [6]) and at NlugOBP3 (setting [8]) were 28.4 µM, 33.9 µM and 24.8 µM, respectively.
Consider `CCCCCCCCCCCCCCCC(=O)O` [Ligand 27, Palmitic acid], for which the inhibition constant Ki at NlugOBP1 (setting [3]) was 22.1 µM; at NlugOBP2 [1] (setting [5]) it was greater than 50 µM; on NlugOBP3 (setting [7]) it was 7.2 µM. In addition, the IC50 at NlugOBP1 (setting [4]) is 25.9 µM; on NlugOBP2 [1] (setting [6]), greater than 50 µM; on NlugOBP3 (setting [8]) it was 10.1 µM.
For the compound `CC1CCC(C(C)C)C(O)C1` (stereo not drawn) [Ligand 10, Menthol], the IC50 at NlugOBP1, on NlugOBP2 [1] and on NlugOBP3 was greater than 50 µM each time. The Ki at NlugOBP1, at NlugOBP2 [1] and at NlugOBP3 was greater than 50 µM each time.
With `CCCCCCCCCCCCCC(C)=O` [Ligand 16, 2-Pentadecanone], at NlugOBP1, the “binding ability with NlugOBP1 (in words)” value is reported as “relatively high binding abilities”. For the same compound, the Ki at NlugOBP1 (setting [3]) was 25.3 µM; on NlugOBP2 [1] (setting [5]) it was 17 µM; on NlugOBP3 (setting [7]), 9.6 µM. Moreover, the IC50 stood at 29.7 µM at NlugOBP1 (setting [4]), 19.8 µM on NlugOBP2 [1] (setting [6]) and 13.5 µM at NlugOBP3 (setting [8]). The “binding ability with NlugOBP2 (in words)” value at NlugOBP2 [1] is listed as “relatively high binding abilities”. Moreover, at NlugOBP3, the “binding ability with NlugOBP3 (in words)” value is “relatively high binding abilities”.
For `CC(=O)/C=C/C1=C(C)CCCC1(C)C` [Ligand 37, β- Ionone], at NlugOBP1, the IC50 amounted to 25.2 µM, the Ki came to 21.5 µM and the “binding ability with NlugOBP1 (in words)” value is “relatively high binding abilities”. For the same compound, on NlugOBP2 [1], the IC50 is 25.8 µM, the Ki was determined as 22.2 µM and the “binding ability with NlugOBP2 (in words)” value is “relatively high binding abilities”. In addition, on NlugOBP3, the IC50 amounted to 8.5 µM, the Ki was 6.1 µM and the “binding ability with NlugOBP3 (in words)” value was “relatively high binding abilities”.
`CCCCCCCCCCCCCCCCCCCC` [Ligand 28, Eicosane]: the inhibitory constant (Ki) at NlugOBP1 (setting [3]), on NlugOBP2 [1] (setting [5]) and on NlugOBP3 (setting [7]) was greater than 50 µM each time. Further, the half-maximal inhibitory concentration (IC50) on NlugOBP1 (setting [4]), at NlugOBP2 [1] (setting [6]) and at NlugOBP3 (setting [8]) was greater than 50 µM in each case.
Turning to `CC(C)=CCC/C(C)=C/CO` [Ligand 8, Geraniol], the IC50 on NlugOBP1 is greater than 50 µM; on NlugOBP2 [1], greater than 50 µM; at NlugOBP3, 32.6 µM. Further, the values for the Ki on NlugOBP1, at NlugOBP2 [1] and on NlugOBP3 were greater than 50 µM, greater than 50 µM and 23.3 µM, respectively.
For `C[C@@H]1CC[C@H]2C(C)(C)[C@H]3C[C@@]12CC[C@@]3(C)O` [Ligand 9, Cedrol], the IC50 turned out to be 30 µM on NlugOBP1; 35 µM on NlugOBP2 [2] (displacement of 1-NPN, 50 mM Tris-HCl pH 7.4, read-out: OBP2 IC50); 19.7 µM at NlugOBP3. Further, the inhibitory constant (Ki) on NlugOBP1 was 25.6 µM; on NlugOBP2 [2] (calculated from IC50, pH 7.4, read-out: OBP2 Ki), 30.1 µM; on NlugOBP3 it was 14.1 µM.
`CCCCCCCCCCCCCCCCCC` [Ligand 31, Octadecane]: the inhibition constant (Ki) on NlugOBP1 (setting [3]), on NlugOBP2 [1] (setting [5]) and on NlugOBP3 (setting [7]) was greater than 50 µM in each case. Also, the IC50 at NlugOBP1 (setting [4]), on NlugOBP2 [1] (setting [6]) and on NlugOBP3 (setting [8]) was greater than 50 µM throughout.
Regarding `CCCCCCOC(C)=O` [Ligand 21, Hexyl acetate], the Ki at NlugOBP1 (setting [3]) was 37.9 µM; on NlugOBP2 [1] (setting [5]), greater than 50 µM; on NlugOBP3 (setting [7]) it was 22 µM. For the same compound, the IC50 on NlugOBP1 (setting [4]) was 44.4 µM; at NlugOBP2 [1] (setting [6]) it was greater than 50 µM; at NlugOBP3 (setting [8]), 30.8 µM.
